For test [1], the system named is KB. As to the kind of experiment: Cytotoxicity against human KB cells. It is filed as functional, cell-based.
Test [2] relates to LoVo. As to the kind of experiment: Cytotoxicity against human LoVo cells. It is filed as functional, cell-based.
For test [3], the system named is MC-38. Description: Antitumor activity against mouse colon 38 cells implanted mouse. It is filed as functional, cell-based.
Test [4] has as its system Mus musculus. Description: Antitumor activity against mouse mammary adenocarcinoma 16/C cells implanted mouse. In kind it is functional.

Activity calls are given as the source filed them. The calls are words filed in the database; no cut-off is given here. *1 amine or outer side, *2 acyl side, *3 side chain or, on linkers, in order; H or OH if unused. Where a SMILES comes first, the peptide text is derived from it. [ ]: non-standard residue; d: D form. X2 = CCC[C@@H](N[*:1])[C@H](C)C(=O)O[C@H](C(=O)[*:2])[C@H](C)CC; X1 = C[C@H](N[*:1])C(=O)C(C)(C)C(=O)[*:2]; NMeY = CN[C@@H](Cc1ccc(O)cc1)C(=O)O; NMeL = CN[C@@H](CC(C)C)C(=O)O; NMeV = CN[C@H](C(=O)O)C(C)C; NMeA = CN[C@@H](C)C(=O)O

The results in this text go back to ChEMBL document CHEMBL1147235, “Isolation and structure determination of lyngbyastatin 3, a lyngbyastatin 1 homologue from the marine cyanobacterium Lyngbya majuscula. Determination of the configuration of the 4-amino-2,2-dimethyl-3-oxopentanoic acid unit in majusculamide C, dolastatin 12, lyngbyastatin 1, and lyngbyastatin 3 …” (J Nat Prod, 2003).

By IC50 is commonly meant the concentration needed to halve the response being measured.

Regarding `CCC[C@H]1NC(=O)[C@H](C)N(C)C(=O)C(C)(C)C(=O)[C@H](C)NC(=O)[C@H](Cc2ccc(OC)cc2)N(C)C(=O)[C@H](C(C)C)N(C)C(=O)CNC(=O)[C@H](CC(C)C)N(C)C(=O)CNC(=O)[C@H]([C@H](C)CC)OC(=O)[C@H]1C` [lyngbyastatin 3] (cyclo(G[NMeL]G[NMeV][NMeY](Me)[X1][NMeA][X2])), the IC50 in test [1] stood at 0.032 µM; in test [2] it was 0.4 µM. Besides, the outcome in test [3] and in test [4] was inactive.
